PMC3375280 (PLoS ONE, 2012)
Numbering of substitutions follows the chain as printed.

Columns and labels:
[1] = biological target: T1, AT1 C76A/V108C/C289A mutant receptor (Rattus norvegicus, UniProt P25095, C289A/C76A/V108C); experiment: competition binding, C76A/V108C/C289A mutant; settings: for Kd ratio relative to WT (in parentheses): C76A/V108C/C289A / WT; for Kd: C76A/V108C/C289A, COS1 membranes, read-out: Binding affinity (Kd)
T1 construct: expressed in transfected cells; host or cells: COS1
T1 sequence (P25095 1-359 C76A/V108C/C289A): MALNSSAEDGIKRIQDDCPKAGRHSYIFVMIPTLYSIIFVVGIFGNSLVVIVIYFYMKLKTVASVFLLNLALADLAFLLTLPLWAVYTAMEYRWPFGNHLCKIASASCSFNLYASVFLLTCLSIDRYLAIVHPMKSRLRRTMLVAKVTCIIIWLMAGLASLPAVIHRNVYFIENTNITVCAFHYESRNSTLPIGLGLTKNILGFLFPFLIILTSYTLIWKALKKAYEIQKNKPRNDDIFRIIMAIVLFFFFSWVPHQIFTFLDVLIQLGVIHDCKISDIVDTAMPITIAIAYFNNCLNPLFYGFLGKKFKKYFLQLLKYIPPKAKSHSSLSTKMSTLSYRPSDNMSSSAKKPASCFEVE
Method: (§1) The Kd and Bmax values of receptor binding were determined by ^125I-[Sar^1, Ile^8] […] Membranes expressing the WT or mutant AT1 receptors were incubated with 100 pM ^125I-[Sar^1, Ile^8] […] The binding reaction was terminated by filtering the incubation mixture through Whatman GF/C glass filters, and the residues were extensively washed further with binding buffer. The bound ligand fraction was determined from the counts per minute (cpm) remaining on the membrane. Binding kinetics values were determined as previously described.

[2] = biological target: T2, AT1 Y113A mutant receptor (Rattus norvegicus, UniProt P25095, Y113A); experiment: competition binding, Y113A mutant; settings: for Kd ratio relative to WT (in parentheses): Y113A / WT; for Kd: Y113A, COS1 membranes, read-out: Binding affinity (Kd)
T2 construct: expressed in transfected cells; host or cells: COS1
T2 sequence (P25095 1-359 Y113A): T1 sequence (P25095 1-359 C76A/V108C/C289A) with A76C, C108V, Y113A, A289C
Method: as §1

[3] = biological target: T3, AT1 C76A/F117C/C289A mutant receptor (Rattus norvegicus, UniProt P25095, C289A/C76A/F117C); experiment: competition binding, C76A/F117C/C289A mutant; settings: for Kd ratio relative to WT (in parentheses): C76A/F117C/C289A / WT; for Kd: C76A/F117C/C289A, COS1 membranes, read-out: Binding affinity (Kd)
T3 construct: expressed in transfected cells; host or cells: COS1 cells (membranes)
T3 sequence (P25095 1-359 C76A/F117C/C289A): T1 sequence (P25095 1-359 C76A/V108C/C289A) with C108V, F117C
Method: as §1

[4] = biological target: T4, AT1 C76A/S109C/C289A mutant receptor (Rattus norvegicus, UniProt P25095, C289A/C76A/S109C); experiment: competition binding, C76A/S109C/C289A mutant; settings: for Kd ratio relative to WT (in parentheses): C76A/S109C/C289A / WT; for Kd: C76A/S109C/C289A, COS1 membranes, read-out: Binding affinity (Kd)
T4 construct: expressed in transfected cells; host or cells: COS1
T4 sequence (P25095 1-359 C76A/S109C/C289A): T1 sequence (P25095 1-359 C76A/V108C/C289A) with C108V, S109C
Method: as §1

[5] = biological target: T5, AT1 C76A/Y113C/C289A mutant receptor (Rattus norvegicus, UniProt P25095, C289A/C76A/Y113C); experiment: competition binding, C76A/Y113C/C289A mutant; settings: for Kd ratio relative to WT (in parentheses): C76A/Y113C/C289A / WT; for Kd: C76A/Y113C/C289A, COS1 membranes, read-out: Binding affinity (Kd)
T5 construct: expressed in transfected cells; host or cells: COS1 cells (membranes)
T5 sequence (P25095 1-359 C76A/Y113C/C289A): T1 sequence (P25095 1-359 C76A/V108C/C289A) with C108V, Y113C
Method: as §1

[6] = biological target: T6, AT1 S109A mutant receptor (Rattus norvegicus, UniProt P25095, S109A); experiment: competition binding, S109A mutant; settings: for Kd ratio relative to WT (in parentheses): S109A / WT; for Kd: S109A, COS1 membranes, read-out: Binding affinity (Kd)
T6 construct: expressed in transfected cells; host or cells: COS1
T6 sequence (P25095 1-359 S109A): T1 sequence (P25095 1-359 C76A/V108C/C289A) with A76C, C108V, S109A, A289C
Method: as §1

| Kd ratio relative to WT (in parentheses) [1] [fold] | Kd [1] [µM] | Kd ratio relative to WT (in parentheses) [2] [fold] | Kd [2] [µM] | Kd ratio relative to WT (in parentheses) [3] [fold] | Kd [3] [µM] | Kd ratio relative to WT (in parentheses) [4] [fold] | Kd [4] [µM] | Kd ratio relative to WT (in parentheses) [5] [fold] | Kd [5] [µM] | Kd ratio relative to WT (in parentheses) [6] [fold] | Kd [6] [µM] | SMILES |
| --- | --- | --- | --- | --- | --- | --- | --- | --- | --- | --- | --- | --- |
| 14 | 0.032 ± 0.001 | 5.2 | 0.012 ± 0.003 | 1.0 | 0.0024 ± 0.0013 | 13 | 0.029 ± 0.005 | 248 | 0.57 ± 0.197 | 1.1 | 0.0025 ± 0.0008 | CCCc1nc(C(C)(C)O)c(C(=O)O)n1Cc1ccc(-c2ccccc2-c2nnn[nH]2)cc1 [Olmesartan, olmesartan, reference compound] |
| 13 | 0.01 ± 0.002 | 183 | 0.146 ± 0.015 | 2.8 | 0.0022 ± 0.0002 | 14 | 0.011 ± 0.003 | 340 | 0.272 ± 0.129 | 1.1 | 0.0009 ± 0.0002 | CCCc1nc(C(C)(C)O)c(C(N)=O)n1Cc1ccc(-c2ccccc2-c2nnn[nH]2)cc1 [R239470] |
| 8 | 0.391 ± 0.054 | 38 | 1.8 ± 0.205 | 0.6 | 0.029 ± 0.009 | 2.0 | 0.096 ± 0.018 | 134 | 6.42 ± 2.57 | 0.7 | 0.034 ± 0.011 | CCCc1nc(C(C)(C)O)c(C(N)=O)n1Cc1ccc(-c2cc(Cc3ccc(O)cc3)ccc2-c2nnn[nH]2)cc1 [R794847] |
